Measured values as given in patent US8802661B2, “C-28 amides of modified C-3 betulinic acid derivatives as HIV maturation inhibitors” (priority 2010, dated 2014).
Like-named read-outs stand apart in the source and are kept apart here.

Test system: recombinant NL4-3 virus (Renilla luciferase in nef, Gag P373S)
Assay: HIV Cell Culture Assay (luciferase reporter virus in MT-2 cells)
Format: cell-based
In short: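 MT-2 cells in RPMI 1640 with 10% heat-inactivated FBS were infected with the reporter virus, made by transfecting the proviral clone into 293T cells, and cultured 4-5 days with serial inhibitor dilutions. Antiviral activity was quantified from Renilla luciferase activity measured in lysed cells.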

Row | Compound | EC50 (NL43, read-out: EC50 Group) [nM] | EC50 (NL43) [nM]
1 | C=C(C)[C@@H]1CC[C@]2(C(=O)N[C@@H](CC(C)C)C(=O)O)CC[C@]3(C)[C@H](CC[C@@H]4[C@@]5(C)CC=C(c6ccc(C(=O)O)cc6)C(C)(C)[C@@H]5CC[C@]43C)[C@@H]12 [Example 59, 4-((1R,3aS,5aR,5bR,7aR,11aS,11bR,13aR,13bR)-3a-((S)-1-carboxy-3-methylbutylcarbamoyl)-5a,5b,8,8,11a-pentamethyl-1-(prop-1-en-2-yl)-2,3,3a,4,5,5a,5b,6,7,7a,8,11,11a,11b,12,13,13a,13b-octadecahydro-1H-cyclopenta[a]chrysen-9-yl)benzoic acid] | < 100 | 
2 | C=C(C)[C@@H]1CC[C@]2(C(=O)NCc3ccc(Cl)cc3)CC[C@]3(C)[C@H](CC[C@@H]4[C@@]5(C)CC=C(c6ccc(C(=O)O)cc6)C(C)(C)[C@@H]5CC[C@]43C)[C@@H]12 [Example 60, 4-((1R,3aS,5aR,5bR,7aR,11aS,11bR,13aR,13bR)-3a-(4-chlorobenzylcarbamoyl)-5a,5b,8,8,11a-pentamethyl-1-(prop-1-en-2-yl)-2,3,3a,4,5,5a,5b,6,7,7a,8,11,11a,11b,12,13,13a,13b-octadecahydro-1H-cyclopenta[a]chrysen-9-yl)benzoic acid] |  | 48
3 | C=C(C)[C@@H]1CC[C@]2(C(=O)N[C@H](C(=O)O)C(C)C)CC[C@]3(C)[C@H](CC[C@@H]4[C@@]5(C)CC=C(c6ccc(C(=O)O)cc6)C(C)(C)[C@@H]5CC[C@]43C)[C@@H]12 [Example 61, 4-((1R,3aS,5aR,5bR,7aR,11aS,11bR,13aR,13bR)-3a-((S)-1-carboxy-2-methylpropylcarbamoyl)-5a,5b,8,8,11a-pentamethyl-1-(prop-1-en-2-yl)-2,3,3a,4,5,5a,5b,6,7,7a,8,11,11a,11b,12,13,13a,13b-octadecahydro-1H-cyclopenta[a]chrysen-9-yl)benzoic acid] | < 100 | 
4 | C=C(C)[C@@H]1CC[C@]2(C(=O)NCC(=O)O)CC[C@]3(C)[C@H](CC[C@@H]4[C@@]5(C)CC=C(c6ccc(C(=O)O)cc6)C(C)(C)[C@@H]5CC[C@]43C)[C@@H]12 [Example 62, 4-((1R,3aS,5aR,5bR,7aR,11aS,11bR,13aR,13bR)-3a-(carboxymethylcarbamoyl)-5a,5b,8,8,11a-pentamethyl-1-(prop-1-en-2-yl)-2,3,3a,4,5,5a,5b,6,7,7a,8,11,11a,11b,12,13,13a,13b-octadecahydro-1H-cyclopenta[a]chrysen-9-yl)benzoic acid] | > 100 | 
5 | C=C(C)[C@@H]1CC[C@]2(C(=O)N[C@@H](CCSC)C(=O)O)CC[C@]3(C)[C@H](CC[C@@H]4[C@@]5(C)CC=C(c6ccc(C(=O)O)cc6)C(C)(C)[C@@H]5CC[C@]43C)[C@@H]12 [Example 63, 4-((1R,3aS,5aR,5bR,7aR,11aS,11bR,13aR,13bR)-3a-((S)-1-carboxy-3-(methylthio)propylcarbamoyl)-5a,5b,8,8,11a-pentamethyl-1-(prop-1-en-2-yl)-2,3,3a,4,5,5a,5b,6,7,7a,8,11,11a,11b,12,13,13a,13b-octadecahydro-1H-cyclopenta[a]chrysen-9-yl)benzoic acid] | > 100 | 
6 | C=C(C)[C@@H]1CC[C@]2(C(=O)NCC(O)CN)CC[C@]3(C)[C@H](CC[C@@H]4[C@@]5(C)CC=C(c6ccc(C(=O)O)cc6)C(C)(C)[C@@H]5CC[C@]43C)[C@@H]12 (stereo partly drawn) [Example 64, 4-((1R,3aS,5aR,5bR,7aR,11aS,11bR,13aR,13bR)-3a-(3-amino-2-hydroxypropylcarbamoyl)-5a,5b,8,8,11a-pentamethyl-1-(prop-1-en-2-yl)-2,3,3a,4,5,5a,5b,6,7,7a,8,11,11a,11b,12,13,13a,13b-octadecahydro-1H-cyclopenta[a]chrysen-9-yl)benzoic acid] | < 100 | 
7 | C=C(C)[C@@H]1CC[C@]2(C(=O)N[C@@H](CN(C)C)C(=O)O)CC[C@]3(C)[C@H](CC[C@@H]4[C@@]5(C)CC=C(c6ccc(C(=O)O)cc6)C(C)(C)[C@@H]5CC[C@]43C)[C@@H]12 [Example 65, 4-((1R,3aS,5aR,5bR,7aR,11aS,11bR,13aR,13bR)-3a-((S)-1-carboxy-2-(dimethylamino)ethylcarbamoyl)-5a,5b,8,8,11a-pentamethyl-1-(prop-1-en-2-yl)-2,3,3a,4,5,5a,5b,6,7,7a,8,11,11a,11b,12,13,13a,13b-octadecahydro-1H-cyclopenta[a]chrysen-9-yl)benzoic acid] | < 100 | 
8 | C=C(C)[C@@H]1CC[C@]2(C(=O)NCCN(C)C)CC[C@]3(C)[C@H](CC[C@@H]4[C@@]5(C)CC=C(c6ccc(C(=O)O)s6)C(C)(C)[C@@H]5CC[C@]43C)[C@@H]12 [Example 66, 5-((1R,3aS,5aR,5bR,7aR,11aS,11bR,13aR,13bR)-3a-(2-(dimethylamino)ethylcarbamoyl)-5a,5b,8,8,11a-pentamethyl-1-(prop-1-en-2-yl)-2,3,3a,4,5,5a,5b,6,7,7a,8,11,11a,11b,12,13,13a,13b-octadecahydro-1H-cyclopenta[a]chrysen-9-yl)thiophene-2-carboxylic acid] | < 100 | 
9 | C=C(C)[C@@H]1CC[C@]2(C(=O)NCCN(C(C)C)C(C)C)CC[C@]3(C)[C@H](CC[C@@H]4[C@@]5(C)CC=C(c6ccc(C(=O)O)cc6)C(C)(C)[C@@H]5CC[C@]43C)[C@@H]12 [Example 67, 4-((1R,3aS,5aR,5bR,7aR,11aS,11bR,13aR,13bR)-3a-(2-(diisopropylamino)ethylcarbamoyl)-5a,5b,8,8,11a-pentamethyl-1-(prop-1-en-2-yl)-2,3,3a,4,5,5a,5b,6,7,7a,8,11,11a,11b,12,13,13a,13b-octadecahydro-1H-cyclopenta[a]chrysen-9-yl)benzoic acid] |  | 3.8
10 | C=C(C)[C@@H]1CC[C@]2(C(=O)N[C@@H](C)CN(C)C)CC[C@]3(C)[C@H](CC[C@@H]4[C@@]5(C)CC=C(c6ccc(C(=O)O)cc6)C(C)(C)[C@@H]5CC[C@]43C)[C@@H]12 [Example 68, 4-((1R,3aS,5aR,5bR,7aR,11aS,11bR,13aR,13bR)-3a-((S)-1-(dimethylamino)propan-2-ylcarbamoyl)-5a,5b,8,8,11a-pentamethyl-1-(prop-1-en-2-yl)-2,3,3a,4,5,5a,5b,6,7,7a,8,11,11a,11b,12,13,13a,13b-octadecahydro-1H-cyclopenta[a]chrysen-9-yl)benzoic acid] | < 100 | 
11 | C=C(C)[C@@H]1CC[C@]2(C(=O)NCCOC)CC[C@]3(C)[C@H](CC[C@@H]4[C@@]5(C)CC=C(c6ccc(C(=O)O)cc6)C(C)(C)[C@@H]5CC[C@]43C)[C@@H]12 [Example 69, 4-((1R,3aS,5aR,5bR,7aR,11aS,11bR,13aR,13bR)-3a-(2-methoxyethylcarbamoyl)-5a,5b,8,8,11a-pentamethyl-1-(prop-1-en-2-yl)-2,3,3a,4,5,5a,5b,6,7,7a,8,11,11a,11b,12,13,13a,13b-octadecahydro-1H-cyclopenta[a]chrysen-9-yl)benzoic acid] | < 100 | 
12 | C=C(C)[C@@H]1CC[C@]2(C(=O)NCCN(CC)CC)CC[C@]3(C)[C@H](CC[C@@H]4[C@@]5(C)CC=C(c6ccc(C(=O)O)cc6)C(C)(C)[C@@H]5CC[C@]43C)[C@@H]12 [Example 70, 4-((1R,3aS,5aR,5bR,7aR,11aS,11bR,13aR,13bR)-3a-(2-(diethylamino)ethylcarbamoyl)-5a,5b,8,8,11a-pentamethyl-1-(prop-1-en-2-yl)-2,3,3a,4,5,5a,5b,6,7,7a,8,11,11a,11b,12,13,13a,13b-octadecahydro-1H-cyclopenta[a]chrysen-9-yl)benzoic acid] | < 100 | 
13 | C=C(C)[C@@H]1CC[C@]2(C(=O)NCC(O)CO)CC[C@]3(C)[C@H](CC[C@@H]4[C@@]5(C)CC=C(c6ccc(C(=O)O)cc6)C(C)(C)[C@@H]5CC[C@]43C)[C@@H]12 (stereo partly drawn) [Example 71, 4-((1R,3aS,5aR,5bR,7aR,11aS,11bR,13aR,13bR)-3a-(2,3-dihydroxypropylcarbamoyl)-5a,5b,8,8,11a-pentamethyl-1-(prop-1-en-2-yl)-2,3,3a,4,5,5a,5b,6,7,7a,8,11,11a,11b,12,13,13a,13b-octadecahydro-1H-cyclopenta[a]chrysen-9-yl)benzoic acid] | < 100 | 
14 | C=C(C)[C@@H]1CC[C@]2(C(=O)NCCN(CC)CCO)CC[C@]3(C)[C@H](CC[C@@H]4[C@@]5(C)CC=C(c6ccc(C(=O)O)cc6)C(C)(C)[C@@H]5CC[C@]43C)[C@@H]12 [Example 72, 4-((1R,3aS,5aR,5bR,7aR,11aS,11bR,13aR,13bR)-3a-(2-(ethyl(2-hydroxyethyl)amino)ethylcarbamoyl)-5a,5b,8,8,11a-pentamethyl-1-(prop-1-en-2-yl)-2,3,3a,4,5,5a,5b,6,7,7a,8,11,11a,11b,12,13,13a,13b-octadecahydro-1H-cyclopenta[a]chrysen-9-yl)benzoic acid] | < 100 | 
15 | C=C(C)[C@@H]1CC[C@]2(C(=O)NCCN(C)CCO)CC[C@]3(C)[C@H](CC[C@@H]4[C@@]5(C)CC=C(c6ccc(C(=O)O)cc6)C(C)(C)[C@@H]5CC[C@]43C)[C@@H]12 [Example 73, 4-((1R,3aS,5aR,5bR,7aR,11aS,11bR,13aR,13bR)-3a-(2-((2-hydroxyethyl)(methyl)amino)ethylcarbamoyl)-5a,5b,8,8,11a-pentamethyl-1-(prop-1-en-2-yl)-2,3,3a,4,5,5a,5b,6,7,7a,8,11,11a,11b,12,13,13a,13b-octadecahydro-1H-cyclopenta[a]chrysen-9-yl)benzoic acid] | < 100 | 
16 | C=C(C)[C@@H]1CC[C@]2(C(=O)NCCNCCO)CC[C@]3(C)[C@H](CC[C@@H]4[C@@]5(C)CC=C(c6ccc(C(=O)O)cc6)C(C)(C)[C@@H]5CC[C@]43C)[C@@H]12 [Example 74, 4-((1R,3aS,5aR,5bR,7aR,11aS,11bR,13aR,13bR)-3a-(2-(2-hydroxyethylamino)ethylcarbamoyl)-5a,5b,8,8,11a-pentamethyl-1-(prop-1-en-2-yl)-2,3,3a,4,5,5a,5b,6,7,7a,8,11,11a,11b,12,13,13a,13b-octadecahydro-1H-cyclopenta[a]chrysen-9-yl)benzoic acid] | < 100 | 
